Assay results from patent publication US8912181B2 (Taiho Pharmaceutical Co., Ltd., priority 2011, dated 2014).

Key:
SK-BR-3 cells = test: Determination of cell growth inhibition (crystal violet staining method); format: cell-based; settings: Homo sapiens; breast cancer cells SK-BR-3, 72 hours culture with test substance
Summary of the method: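 SK-BR-3 cells seeded 5,000/well, cultured 24 h at 37 °C, then exposed to compound for 72 h. Cells fixed with glutaraldehyde, stained with 0.05% crystal violet, eluted and read at 540 nm; percent growth inhibition calculated versus untreated wells.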

[1] = target: human HSP90 alpha protein (N-terminal, amino acids 2 to 236) (Homo sapiens (Human), UniProt P07900); test: Determination of HSP90-binding activity (AlphaScreen competitive assay with biotinylated geldanamycin); settings: inhibition of binding of biotinylated geldanamycin to purified HSP90 N-terminal protein, read-out: HSP-binding activity IC50
Summary of the method: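 His-tagged N-terminal construct (aa 2–236) expressed in E. coli and purified was preincubated with compound 2 h at room temperature, then biotinylated geldanamycin (40 nM/well) added for 1 h. AlphaScreen nickel-chelate acceptor/streptavidin donor beads, 1 h dark; percent inhibition calculated against no-compound signal.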

SMILES: CC(C)(C)Nc1cc(-c2cc(C(F)(F)F)nc3c(-c4cnc5ccccc5c4)cccc23)ccc1C(N)=O [Example 5, 2-(Tert-butylamino)-4-(2′-(trifluoromethyl)-3,8′-biquinolin-4′-yl)benzamide]
- IC50 (SK-BR-3 cells): 90 nM
- IC50 [1]: 1440 nM

SMILES: Cn1cc(-c2cn(-c3cccc4c(-c5ccc(C(N)=O)c(NC(C)(C)C)c5)cc(C5CC5)nc34)cn2)cn1 [Example 105, 2-(Tert-butylamino)-4-(2-cyclopropyl-8-(4-(1-methyl-1H-pyrazol-4-yl)-1H-imidazol-1-yl)quinolin-4-yl)benzamide]
- IC50 (SK-BR-3 cells): 20 nM
- IC50 [1]: 400 nM

SMILES: Cn1cc(-c2cn(-c3cccc4c(-c5ccc(C(N)=O)c(N)c5)cc(C(F)(F)F)nc34)cn2)cn1 [Example 69, 2-Amino-4-(8-(4-(1-methyl-1H-pyrazol-4-yl)-1H-imidazol-1-yl)-2-(trifluoromethyl)quinolin-4-yl)benzamide]
- IC50 (SK-BR-3 cells): 20 nM
- IC50 [1]: 150 nM

SMILES: Cn1cc(-c2cn(-c3cccc4c(-c5ccc(C(N)=O)cc5N)nc(C(F)(F)F)nc34)cn2)cn1 [Example 75, 3-Amino-4-(8-(4-(1-methyl-1H-pyrazol-4-yl)-1H-imidazol-1-yl)-2-(trifluoromethyl)quinazolin-4-yl)benzamide]
- IC50 (SK-BR-3 cells): 330 nM
- IC50 [1]: 210 nM

SMILES: NC(=O)c1ccc(-c2nccc3c(-c4cnc5ccccc5c4)cccc23)cc1NC1CCC(O)CC1 (stereo not shown) [Example 6, 2-(4-Hydroxycyclohexylamino)-4-(5-(quinolin-3-yl)isoquinolin-1-yl)benzamide]
- IC50 (SK-BR-3 cells): 30 nM
- IC50 [1]: 170 nM

SMILES: CNC(=O)c1ccc(-c2cccc3c(-c4ccc(C(N)=O)c(NC5CCC(O)CC5)c4)nccc23)cn1 (stereo not shown) [Example 56, 5-(1-(4-Carbamoyl-3-(4-hydroxycyclohexylamino)phenyl)isoquinolin-5-yl)-N-methylpicolinamide]
- IC50 (SK-BR-3 cells): 470 nM
- IC50 [1]: 370 nM

SMILES: CC(C)(C)Nc1cc(-c2cc(C(F)(F)F)nc3c(-n4cnc(-c5cnn(C(F)F)c5)c4)cccc23)ccc1C(N)=O [Example 92, 2-(Tert-butylamino)-4-(8-(4-(1-difluoromethyl-1H-pyrazol-4-yl)-1H-imidazol-1-yl)-2-(trifluoromethyl)quinolin-4-yl)benzamide]
- IC50 (SK-BR-3 cells): 20 nM
- IC50 [1]: 790 nM

SMILES: CC(C)n1cc(-c2cn(-c3cccc4c(-c5ccc(C(N)=O)c(NC6CCC(O)CC6)c5)nccc34)cn2)cn1 (stereo not shown) [Example 53, 2-(4-Hydroxycyclohexylamino)-4-(5-(4-(1-isopropyl-1H-pyrazol-4-yl)-1H-imidazol-1-yl)isoquinolin-1-yl)benzamide]
- IC50 (SK-BR-3 cells): 40 nM
- IC50 [1]: 120 nM

SMILES: Cn1cc(-c2cn(-c3cccc4c(-c5ccc(C(N)=O)nc5)cc(C(F)(F)F)nc34)cn2)cn1 [Example 83, 5-(8-(4-(1-Methyl-1H-pyrazol-4-yl)-1H-imidazol-1-yl)-2-(trifluoromethyl)quinolin-4-yl)picolinamide]
- IC50 (SK-BR-3 cells): 100 nM
- IC50 [1]: 210 nM

SMILES: CNc1cc(-c2nccc3c(-n4cnc(-c5cnn(C)c5)c4)cccc23)ccc1C(N)=O [Example 58, 4-(5-(4-(1-Methyl-1H-pyrazol-4-yl)-1H-imidazol-1-yl)isoquinolin-1-yl)-2-(methylamino)benzamide]
- IC50 (SK-BR-3 cells): 1440 nM
- IC50 [1]: 250 nM

SMILES: COCCNc1cc(-c2nccc3c(-n4cnc(-c5cnn(C)c5)c4)cccc23)ccc1C(N)=O [Example 62, 2-(2-Methoxyethylamino)-4-(5-(4-(1-methyl-1H-pyrazol-4-yl)-1H-imidazol-1-yl)isoquinolin-1-yl)benzamide]
- IC50 (SK-BR-3 cells): 260 nM
- IC50 [1]: 210 nM

SMILES: CC(=O)Nc1cncc(-c2cccc3c(-c4ccc(C(N)=O)c(NC5CCC(O)CC5)c4)nccc23)c1 (stereo not shown) [Example 27, 4-(5-(5-Acetamidepyridin-3-yl)isoquinolin-1-yl)-2-(4-hydroxycyclohexylamino)benzamide]
- IC50 (SK-BR-3 cells): 540 nM
- IC50 [1]: 150 nM

SMILES: NC(=O)c1ccc(-c2nc(C3CC3)nc3c(-c4cnc5ccccc5c4)cccc23)cc1NC1CCC(O)CC1 (stereo not shown) [Example 115, 4-(2-Cyclopropyl-8-(quinolin-3-yl)quinazolin-4-yl)-2-(4-hydroxycyclohexylamino)benzamide]
- IC50 (SK-BR-3 cells): 10 nM
- IC50 [1]: 140 nM

SMILES: Cn1cc(-c2cn(-c3cccc4c(-c5ccc(C(N)=O)c(NC6CCC(O)CC6)c5)nccc34)cn2)cn1 (stereo not shown) [Example 48, 2-(4-Hydroxycyclohexylamino)-4-(5-(4-(1-methyl-1H-pyrazol-4-yl)-1H-imidazol-1-yl)isoquinolin-1-yl)benzamide]
- IC50 (SK-BR-3 cells): 20 nM
- IC50 [1]: 70 nM

SMILES: NC(=O)c1ccc(-c2ccnc3c(-c4cnc5ccccc5c4)cccc23)cc1NC1CCC(O)CC1 (stereo not shown) [Example 117, 4-(3,8′-Biquinolin-4′-yl)-2-(4-hydroxycyclohexylamino)benzamide]
- IC50 (SK-BR-3 cells): 50 nM
- IC50 [1]: 290 nM

SMILES: CC(C)(C)OC(=O)NCCc1cncc(-c2cccc3c(-c4ccc(C(N)=O)c(NC5CCC(O)CC5)c4)nccc23)c1 (stereo not shown) [Example 19, Tert-butyl 2-(5-(1-(4-carbamoyl-3-(4-hydroxycyclohexylamino)phenyl)isoquinolin-5-yl)pyridin-3-yl)ethylcarbamate]
- IC50 (SK-BR-3 cells): 880 nM
- IC50 [1]: 2690 nM

SMILES: CCNc1cc(-c2cccc3c(-n4cnc(-c5cnn(C)c5)c4)nccc23)ccc1C(N)=O [Comp. Ex. 3, 2-(Ethylamino)-4-(1-(4-(1-methyl-1H-pyrazol-4-yl)-1H-imidazol-1-yl)isoquinolin-5-yl)benzamide, reference compound]
- IC50 (SK-BR-3 cells): 7630 nM
- IC50 [1]: > 100000 nM

SMILES: NC(=O)c1ccc(-c2nccc3c(-c4cncc(CO)c4)cccc23)cc1NC1CCC(O)CC1 (stereo not shown) [Example 17, 2-(4-Hydroxycyclohexylamino)-4-(5-(5-(hydroxymethyl)pyridin-3-yl)isoquinolin-1-yl)benzamide]
- IC50 (SK-BR-3 cells): 280 nM
- IC50 [1]: 100 nM

SMILES: CCNc1cc(-c2cc(C(F)(F)F)nc3c(-n4cnc(-c5cccnc5)c4)cccc23)ccc1C(N)=O [Example 77, 2-(Ethylamino)-4-(8-(4-(pyridin-3-yl)-1H-imidazol-1-yl)-2-(trifluoromethyl)quinolin-4-yl)benzamide]
- IC50 (SK-BR-3 cells): 10 nM
- IC50 [1]: 170 nM

SMILES: Cc1cc2c(-c3cnc4ccccc4c3)cccc2c(-c2ccc(C(N)=O)c(NC3CCC(O)CC3)c2)[n+]1[O-] (stereo not shown) [Example 8, 1-(4-Carbamoyl-3-(4-hydroxycyclohexylamino)phenyl)-3-methyl-5-(quinolin-3-yl)isoquinoline-2-oxide]
- IC50 (SK-BR-3 cells): 20 nM
- IC50 [1]: 100 nM

SMILES: Cn1cc(-c2cn(-c3cccc4c(-c5ccc(C(N)=O)c(F)c5)cc(C(F)(F)F)nc34)cn2)cn1 [Example 70, 2-Fluoro-4-(8-(4-(1-methyl-1H-pyrazol-4-yl)-1H-imidazol-1-yl)-2-(trifluoromethyl)quinolin-4-yl)benzamide]
- IC50 (SK-BR-3 cells): 60 nM
- IC50 [1]: 210 nM

SMILES: CCn1cc(-c2cn(-c3cccc4c(-c5ccc(C(N)=O)c(NC(C)(C)C)c5)cc(C(F)(F)F)nc34)cn2)cn1 [Example 90, 2-(Tert-butylamino)-4-(8-(4-(1-ethyl-1H-pyrazol-4-yl)-1H-imidazol-1-yl)-2-(trifluoromethyl)quinolin-4-yl)benzamide]
- IC50 (SK-BR-3 cells): 30 nM
- IC50 [1]: 580 nM

SMILES: CCc1cc(-c2ccc(C(N)=O)c(N)c2)c2cccc(-c3cnc4ccccc4c3)c2n1 [Example 120, 2-Amino-4-(2′-ethyl-3,8′-biquinolin-4′-yl)benzamide]
- IC50 (SK-BR-3 cells): 30 nM
- IC50 [1]: 190 nM
